The source of these data is patent US5096924A, “Anticancer antibiotic MI43-37F11 substance” (501 Azidan Hojin Biseibutsu Kagaku Kenkyu Kai, priority 1989, dated 1992).

The assay has as its system Ehrlich carcinoma. Put plainly: Therapeutic treatment of Ehrlich carcinoma-bearing mice by oral administration. The assay is classed as in vivo, ICR mice. Conditions: days 1-9, 14th day; for Weight of tumor (mg ± S.D.): control 1,084 ± 256. As for the experimental part: On the 15th day after the transplantation of the carcinoma cells, the mass of the tumor (carcinoma) was surgically removed out of each mouse and weighed. The rate of the reduction in the weight of the tumor (carcinoma) obtained from the group of mice treated with MI43-37F11 substance was evaluated in term of the rate (%) of inhibition, with such an assumption that the weight of the tumor obtained from the control group of mice was amounting to 100. In other words, the rate (%) of inhibition to the growth of Ehrlich carcinoma was calculated according to the following equation [formula] where C means the weight of the tumor in the control group of mice (untreated) and T means the weight of the tumor of the treated group of mice.
(b) Another experiments for therapeutic treatment of Ehrlich carcinoma-bearing mice were conducted by oral administration of MI43-37F11 substance. Thus, the cell suspension of Ehrlich ascites carcinoma cells was subcutaneously inoculated at the abdominal region of ICR mice (female, 6-week old, 5 mice in each treated group) so that the number of the carcinoma cells as subcutaneously implanted was 2×10^6 cells per mouse. The MI43-37F11 substance was orally administered to the mice of the treated group at a dosage of 6.3 mg/kg, 12.5 mg/kg, 25 mg/kg, […] or 100 mg/kg once a day during the consecutive 9 days from the 1st day to the 9th day after the implantation of the carcinoma cells. On the 14th day after the implantation of the carcinoma cells, the mass of the tumor (carcinoma) was surgically removed out of each mouse and weighed. The weight of the tumor obtained from the treated group of mice was compared with the weight of the tumor obtained from the control group of mice (untreated), by calculating the rate (%) of inhibition according to the same equation as above.

SMILES strings stand for the structures.

Regarding `COc1cc(O)c2c(=O)oc(CO)cc2c1` [MI43-37F11 substance], the “Rate (%) of Inhibition” value was determined as 45% (6.3 mg/kg/day oral); 63% (12.5 mg/kg/day oral); 74% (25.0 mg/kg/day oral); 55% (50.0 mg/kg/day oral); 47% (100.0 mg/kg/day oral). Also, the “Weight of tumor (mg ± S.D.)” value (6.3 mg/kg/day oral, *P < 0.05) is given as 586 ± 282 mg; the “Weight of tumor (mg ± S.D.)” value (12.5 mg/kg/day oral, **P < 0.01) came to 391 ± 266 mg; the “Weight of tumor (mg ± S.D.)” value (25.0 mg/kg/day oral, ***P < 0.001) is listed as 280 ± 152 mg; the “Weight of tumor (mg ± S.D.)” value (50.0 mg/kg/day oral, **P < 0.01) turned out to be 485 ± 123 mg; the “Weight of tumor (mg ± S.D.)” value (100.0 mg/kg/day oral, **P < 0.01) is recorded as 566 ± 421 mg.
